The subject of assay [1] is carrageenan foot edema (rat paw). The assay can be described thus: Rat Carrageenan Foot Pad Edema Test. The settings on record: @ 30 mg/kg body weight; oral; 3 hours after carrageenan. The class given is in vivo, Male Sprague-Dawley rats. How it is done: Rat Carrageenan Foot Pad Edema Test
Male Sprague-Dawley rats were selected in each group so that the average body weight was as close as possible. Rats were fasted with free access to water for over sixteen hours prior to the test. […] One hour later a subplantar injection of 0.1 mL of 1% solution of carrageenan/sterile 0.9% saline was administered and the volume of the injected foot was measured with a displacement plethysmometer connected to a pressure transducer with a digital indicator. Three hours after the injection of the carrageenan, the volume of the foot was again measured.
(In general: In the carrageenan paw model, swelling and tenderness develop within hours.)

The test system of assay [2] is hyperalgesic foot withdrawal (rat carrageenan). Description: Rat Carrageenan-induced Analgesia Test. The class given is in vivo, Male Sprague-Dawley rats. The settings on record: @ 30 mg/kg body weight; oral; 3 hours after carrageenan. How it is done:
Rat Carrageenan-induced Analgesia Test
Male Sprague-Dawley rats were treated as previously described for the Carrageenan Foot Pad Edema test. Three hours after the injection of the carrageenan, the rats were placed in a special plexiglass container with a transparent floor having a high intensity lamp as a radiant heat source, positionable under the floor. After an initial twenty minute period, thermal stimulation was begun on either the injected foot or on the contralateral uninjected foot. A photoelectric cell turned off the lamp and timer when light was interrupted by paw withdrawal. The time until the rat withdraws its foot was then measured. The withdrawal latency in seconds was determined for the control and drug-treated groups, and percent inhibition of the hyperalgesic foot withdrawal determined.

For a further assay, the target named is T1, Human COX-1 (Homo sapiens, UniProt P23219).
T1 construct: A 2.0 kb fragment containing the coding region of either human or murine COX-1 or human or murine COX-2; made in house; host or cells: SF9 insect cells (recombinant baculovirus, pVL1393); CHAPS-solubilized membranes
The assay can be described thus: Evaluation of COX-1 activity in vitro (recombinant enzyme, PGE2 ELISA). The class given is biochemical. To be noted: 10 μM arachidonic acid; 10-20 minutes pre-incubation; pH 8.0. The text has this: Evaluation of COX-1 and COX-2 activity in vitro
(§1) a. Preparation of recombinant COX baculoviruses
(§2) A 2.0 kb fragment containing the coding region of either human or murine COX-1 or human or murine COX-2 was cloned into a BamH1 site of the baculovirus transfer vector pVL1393 (Invitrogen) to generate the baculovirus transfer vectors for COX-1 and COx-2 in a manner similar to the method of D. R. O'Reilly et al (Baculovirus Expression Vectors: A Laboratory Manual (1992)). Recombinant baculoviruses were isolated by transfecting 4 μg of baculovirus transfer vector DNA into SF9 insect cells (2>10e8) along with 200 ng of linearized baculovirus plasmid DNA by the calcium phosphate method. See M. D. Summers and G. E. Smith, A Manual of Methods for Baculovirus Vectors and Insect Cell Culture Procedures, Texas Agric. Exp. Station Bull. 1555 (1987). Recombinant viruses were purified by three rounds of plaque purification and high titer (10E7-10E8 pfu/ml) stocks of virus were prepared. For large scale production, SF9 insect cells were infected in 10 liter fermentors (0.5×10^6 /ml) with the recombinant baculovirus stock such that the multiplicity of infection was 0.1. After 72 hours the cells were centrifuged and the cell pellet homogenized in Tris/Sucrose (50 mM: 25%, pH 8.0) containing 1% 3-[(3-cholamidopropyl)dimethylammoniol]-1-propanesulfonate (CHAPS). The homogenate was centrifuged at 10,000×G for 30 minutes, and the resultant supernatant was stored at -80° C. before being assayed for Cox activity.
b. Assay for COX-1 and COX-2 activity:
(§3) COX activity was assayed as PGE2 formed/μg protein/time using an ELISA to detect the prostaglandin released. CHAPS-solubilized insect cell membranes containing the appropriate COX enzyme were incubated in a potassium phosphate buffer (50 mM, pH 8.0) containing epinephrine, phenol, and heme with the addition of arachidonic acid (10 μM). Compounds were pre-incubated with the enzyme for 10-20 minutes prior to the addition of arachidonic acid. Any reaction between the arachidonic acid and the enzyme was stopped after ten minutes at 37° C./room temperature by transferring 40 μl of reaction mix into 160 μl ELISA buffer and 25 μM indomethacin. The PGE2 formed was measured by standard ELISA technology (Cayman Chemical).
A general note: An ELISA detects its analyte on a solid surface through an enzyme-linked reagent.

The next assay deals with T2, Human COX-2 (Homo sapiens, UniProt P35354).
T2 construct: A 2.0 kb fragment containing the coding region of either human or murine COX-1 or human or murine COX-2; made in house; host or cells: SF9 insect cells (recombinant baculovirus, pVL1393); CHAPS-solubilized membranes
T2 sequence (P35354 18-604): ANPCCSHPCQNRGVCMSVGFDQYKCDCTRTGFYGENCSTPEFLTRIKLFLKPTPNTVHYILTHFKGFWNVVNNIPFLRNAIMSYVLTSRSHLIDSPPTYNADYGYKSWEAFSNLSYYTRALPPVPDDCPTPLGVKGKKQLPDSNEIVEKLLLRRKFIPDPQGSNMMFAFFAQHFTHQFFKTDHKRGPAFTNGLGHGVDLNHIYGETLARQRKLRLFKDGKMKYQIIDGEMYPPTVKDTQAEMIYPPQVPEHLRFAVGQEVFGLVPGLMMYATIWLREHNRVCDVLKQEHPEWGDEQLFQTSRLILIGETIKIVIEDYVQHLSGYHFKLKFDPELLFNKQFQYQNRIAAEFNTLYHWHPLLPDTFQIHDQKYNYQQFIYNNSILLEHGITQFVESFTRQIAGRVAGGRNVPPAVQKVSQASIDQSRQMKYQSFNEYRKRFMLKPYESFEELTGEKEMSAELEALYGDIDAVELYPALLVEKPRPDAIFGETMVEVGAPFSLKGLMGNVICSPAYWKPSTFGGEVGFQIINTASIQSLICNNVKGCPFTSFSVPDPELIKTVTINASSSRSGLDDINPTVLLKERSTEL
Description: Evaluation of COX-2 activity in vitro (recombinant enzyme, PGE2 ELISA). The class given is biochemical. The settings on record: 10 μM arachidonic acid; 10-20 minutes pre-incubation; pH 8.0. The method, then: The COX-2 inhibition activity of the compounds of this invention illustrated in the Examples was determined by the following methods.
as §1, §2, §3

This is an account of results in patent US5886016A, “Benzopyranopyrazolyl derivatives for the treatment of inflammation” (G.D. Searle & Co., priority 1997, dated 1999).

Usually IC50 stands for the concentration that inhibits the measured activity by half.

T1 sequence (P23219 24-599): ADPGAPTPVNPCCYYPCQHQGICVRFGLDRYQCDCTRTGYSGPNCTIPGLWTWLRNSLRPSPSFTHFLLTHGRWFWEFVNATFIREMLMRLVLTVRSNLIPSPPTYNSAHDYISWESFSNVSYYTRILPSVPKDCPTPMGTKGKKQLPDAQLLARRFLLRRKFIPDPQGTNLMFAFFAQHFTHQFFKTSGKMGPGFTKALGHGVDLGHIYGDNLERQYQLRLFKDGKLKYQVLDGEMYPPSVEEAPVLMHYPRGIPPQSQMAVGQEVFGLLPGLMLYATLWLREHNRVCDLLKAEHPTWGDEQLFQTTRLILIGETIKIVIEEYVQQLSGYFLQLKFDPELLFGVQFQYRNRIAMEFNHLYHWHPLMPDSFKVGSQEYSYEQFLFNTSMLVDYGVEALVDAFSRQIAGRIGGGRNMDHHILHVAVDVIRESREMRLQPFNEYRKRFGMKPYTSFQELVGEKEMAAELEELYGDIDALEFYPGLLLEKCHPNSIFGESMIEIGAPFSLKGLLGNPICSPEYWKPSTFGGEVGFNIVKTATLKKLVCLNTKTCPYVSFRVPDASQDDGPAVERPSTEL

For the molecule `COc1ccc2c(c1F)CSc1c(C(F)(F)F)nn(-c3ccc(S(N)(=O)=O)cc3)c1-2` [Example 1, 4-[6-fluoro-1,5-dihydro-7-methoxy-3-(trifluoromethyl)-[2]benzothiopyrano[4,3-c]pyrazol-1-yl]benzenesulfonamide], the “RAT PAW EDEMA % Inhibition” value in assay [1] is listed as 43%. For the same molecule, the “ANALGESIA % Inhibition” value in assay [2] was 35%.
Turning to `NS(=O)(=O)c1ccc(-n2nc(C(F)(F)F)c3c2-c2ccccc2OC3)cc1` [Example 3, 4-[1,4-dihydro-3-(trifluoromethyl)-[1]benzopyrano[4,3-c]pyrazol-1-yl]benzenesulfonamide], at Human COX-1, the half-maximal inhibitory concentration (IC50) came out at 7.1 µM.
With `NS(=O)(=O)c1ccc(-n2nc(C(F)(F)F)c3c2-c2ccccc2SC3)cc1` [Example 7, 4-[1,4-dihydro-3-(trifluoromethyl)-[1]benzothiopyrano[4,3-c]pyrazol-1-yl]benzenesulfonamide], the half-inhibitory concentration (IC50) at Human COX-1 turned out to be 9.7 µM.
Regarding `NS(=O)(=O)c1ccc(-n2nc(C(F)(F)F)c3c2-c2ccccc2CS3)cc1` [Example 16, 4-[1,5-dihydro-3-(trifluoromethyl)-[2]benzothiopyrano[4 3-c]pyrazol-1-yl]benzenesulfonamide], the IC50 at Human COX-1 worked out at 0.4 µM.
On to `NS(=O)(=O)c1ccc(-n2nc(C(F)(F)F)c3c2-c2cc(Cl)sc2CS3)cc1` [Example 21, 4-[7-chloro-1,5-dihydro-3-trifluoromethylthieno[3',2':4,5]thiopyrano[3,2-c]pyrazol-1-yl]benzenesulfonamide], for which the “ANALGESIA % Inhibition” value in assay [2] came to 14%.
`Cc1ccc2c(c1)CSc1c(C(F)F)nn(-c3ccc(S(N)(=O)=O)cc3)c1-2` [Example 24, 4-[3-(difluoromethyl)-1,5-Dihydro-7-methyl-[2]benzothiopyrano[4,3-c]pyrazol-1-yl]benzenesulfonamide]: the IC50 was 1.2 µM on Human COX-1 and less than 0.1 µM at Human COX-2.
On to `NS(=O)(=O)c1ccc(-n2nc(C(F)F)c3c2-c2ccc(Cl)cc2CS3)cc1` [Example 25, 4-[7-chloro-3-(difluoromethyl)-1,5-dihydro-[2]benzothiopyrano[4,3-c]pyrazol-1-yl]benzenesulfonamide], for which the values for the IC50 at Human COX-1 and on Human COX-2 were 1.5 µM and less than 0.1 µM, respectively.
Regarding `COc1ccc2c(c1)COc1c(C(F)(F)F)nn(-c3ccc(S(N)(=O)=O)cc3)c1-2` [Example 26, 4-[1,5-dihydro-7-methoxy-3-(trifluoromethyl)-[2]benzopyrano[4,3-c]pyrazol-1-yl]benzenesulfonamide], the IC50 on Human COX-1 was 0.2 µM; at Human COX-2, less than 0.1 µM.
`COc1cc2c(c(OC)c1OC)-c1c(c(C(F)(F)F)nn1-c1ccc(S(N)(=O)=O)cc1)OC2` [Example 27, 4-[1,5-dihydro-7.8,9-trimethoxy-3-(trifluoromethyl)-[2]benzopyrano[4,3-c]pyrazol-1-yl]benzenesulfonamide]: the 50% inhibitory concentration (IC50) is more than 100 µM at Human COX-1 and 59.9 µM at Human COX-2.
Regarding `Cc1ccc2c(c1)COc1c(C(F)(F)F)nn(-c3ccc(S(N)(=O)=O)cc3)c1-2` [Example 28, 4-[1,5-dihydro-7-methyl-3-(trifluoromethyl)-[2]benzopyrano[4,3-c]pyrazol-1-yl]benzenesulfonamide], the IC50 at Human COX-1 was more than 100 µM; on Human COX-2, less than 0.1 µM.
`COc1c(F)cc2c(c1F)CSc1c(C(F)(F)F)nn(-c3ccc(S(N)(=O)=O)cc3)c1-2` [Example 29, 4-[6,8-difluoro-1,5-dihydro-7-methoxy-3-(trifluoromethyl)[2]benzothiopyrano[4,3-c]pyrazol-1-yl]benzenesulfonamide]: the IC50 is more than 100 µM on Human COX-1 and 0.3 µM on Human COX-2.
`Cc1ccc2c(c1)COc1c(C(F)F)nn(-c3ccc(S(N)(=O)=O)cc3)c1-2` [Example 30, 4-[3-(difluoromethyl)-1,5-dihydro-7-methyl[2]benzopyrano[4,3-c]pyrazol-1-yl]benzenesulfonamide]: the concentration for half-maximal inhibition (IC50) at Human COX-1 is 10.7 µM; on Human COX-2, less than 0.1 µM.
Regarding `NS(=O)(=O)c1ccc(-n2nc(C(F)F)c3c2-c2ccc(F)cc2CS3)cc1` [Example 31, 4-[3-(difluoromethyl)-1,5-dihydro-7-fluoro-[2]benzothiopyrano[4,3-c]pyrazol-1-yl]benzenesulfonamide], the IC50 on Human COX-1 is 0.2 µM; at Human COX-2, less than 0.1 µM.
On to `CS(=O)(=O)c1ccc(-n2nc(C(F)(F)F)c3c2-c2ccc(F)cc2CS3)cc1` [Example 32, 1,5-dihydro-7-fluoro-1-[(4-methylsulfonyl)phenyl]-3-(trifluoromethyl)-[2]benzothiopyrano[4,3,c]pyrazole], for which the IC50 stood at 8.9 µM at Human COX-1 and 0.2 µM on Human COX-2.
With `NS(=O)(=O)c1ccc(-n2nc(C(F)(F)F)c3c2-c2ccc4c(c2CS3)OCO4)cc1` [Example 33], the IC50 at Human COX-1 and at Human COX-2 was less than 0.1 µM throughout.
Regarding `CN(C)C=NS(=O)(=O)c1ccc(-n2nc(C#N)c3c2-c2ccc(F)cc2CS3)cc1` [Example 34, 4-(3-cyano-1,5-dihydro-7-fluoro-[2]benzothiopyrano[4,3-c]pyrazol-1-yl) -N-[(dimethylamino)methylene]-benzenesulfonamide], the values for the concentration for half-maximal inhibition (IC50) at Human COX-1 and at Human COX-2 were more than 100 µM and 4.2 µM, respectively.
`N#Cc1nn(-c2ccc(S(N)(=O)=O)cc2)c2c1SCc1cc(F)ccc1-2` [Example 35]: the 50% inhibitory concentration (IC50) amounted to 0.8 µM at Human COX-1 and 0.1 µM at Human COX-2.
With `NS(=O)(=O)c1ccc(-n2nc(CO)c3c2-c2ccc(F)cc2CS3)cc1` [Example 36], the IC50 on Human COX-1 worked out at 6.7 µM; on Human COX-2 it was 1.7 µM.
